The values that follow come from patent US20110046108A1, “PYRIMIDINE DERIVATIVES” (AstraZeneca AB, priority 2006, published 2011).

Where two headings read alike, the source gives them in different places.

One assay concerns the target T1, EphB4 (Homo sapiens, UniProt P54760).
T1 construct: to generate full-length EphB4 containing a Myc-His tag at the C-terminus; expressed in transfected cells; host or cells: CHO-K1 (EphB4-CHO)
Put plainly: In vitro EphB4 cell assay (Assay B, EphB4 phosphorylation ELISA in EphB4-CHO cells). In kind it is cell-based.

The target in another assay is T2, c-Src kinase (Homo sapiens, UniProt P12931).
T2 construct: purchased Upstate 14-117
Put plainly: Src in vitro enzyme assay (Assay C, ELISA). Conditions: 2.2 μM ATP. It is filed as biochemical. The protocol: The ability of test compounds to inhibit the phosphorylation of a tyrosine containing polypeptide substrate by the enzyme c-Src kinase was assessed using a conventional ELISA assay with a colorimetric endpoint.
Each well of Matrix 384-well plates (Matrix, Brooke Park, Wilmslow, Cheshire, SK9 3LP, UK, Catalogue No. 4311) were coated overnight at 4° C. with 40 μl of 10 ug/ml stock of synthetic polyamino acid pEAY substrate (Sigma-Aldrich Company Ltd, Gillingham, Dorset, SP8 4XT, UK, Catalogue No. P3899) in phosphate buffered saline (PBS). Immediately prior to the assay, the plates were washed with 100 μl/well of PBS containing Tween-20 and then with 50 mM HEPES pH7.4.
Test compounds were prepared as 10 mM stock solutions in DMSO (Sigma-Aldrich Company Ltd, Gillingham, Dorset, SP8 4XT, UK, Catalogue No.154938) and serially diluted with 10% DMSO to give a range of test concentrations at 4× the required final concentration. […]
The plates were washed three times with 100 μl/well of PBS-Tween20 and then 40 μl of a PBS-Tween20 and 0.5% BSA solution containing 4G10-HRP anti-phosphotyrosine antibody (Upstate, Catalogue No 16-105) added to each well. […] The reaction was then stopped with the addition of 20 μl/well 2M sulphuric acid and the absorbances determined at 450 nm using a plate reading spectrophotometer. […]

Another assay has as its target T3, recombinant EphB4 (Homo sapiens, UniProt P54760).
T3 construct: recombinant active EphB4 (amino acids 563-987; Swiss-Prot Acc; No. P54760); purchased ProQinase GmbH 0178-0000-3
T3 sequence (P54760 563-987): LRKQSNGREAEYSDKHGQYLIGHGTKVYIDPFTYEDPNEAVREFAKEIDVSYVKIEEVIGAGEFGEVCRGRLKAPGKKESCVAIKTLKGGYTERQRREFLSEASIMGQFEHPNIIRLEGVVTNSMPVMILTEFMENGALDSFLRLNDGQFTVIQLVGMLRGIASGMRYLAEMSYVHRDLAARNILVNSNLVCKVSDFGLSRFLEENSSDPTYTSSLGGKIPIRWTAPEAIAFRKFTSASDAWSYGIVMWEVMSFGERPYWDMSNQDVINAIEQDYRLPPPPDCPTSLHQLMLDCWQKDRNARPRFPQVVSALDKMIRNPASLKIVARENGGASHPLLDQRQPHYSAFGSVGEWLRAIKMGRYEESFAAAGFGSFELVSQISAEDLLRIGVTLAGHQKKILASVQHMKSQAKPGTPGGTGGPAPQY
The assay is described as follows: In vitro EphB4 enzyme assay (Assay A, Alphascreen). In kind it is biochemical. Conditions: 4 μM ATP. How it is done: This assay detects inhibitors of EphB4-mediated phosphorylation of a polypeptide substrate using Alphascreen™ luminescence detection technology. Briefly, recombinant EphB4 was incubated with a biotinylated-polypeptide substrate (biotin-poly-GAT) in presence of magnesium-ATP. The reaction was stopped by addition of EDTA, together with streptavidin-coated donor beads which bind the biotin-substrate containing any phosphorylated tyrosine residues. Anti-phosphotyrosine antibodies present on acceptor beads bind to phosphorylated substrate, thus bringing the donor & acceptor beads into close proximity. Subsequent excitation of the donor beads at 680 nm generated singlet oxygen species that interact with a chemiluminescer on the acceptor beads, leading to light emission at 520-620 nm. The signal intensity is directly proportional to the level of substrate phosphorylation and thus inhibition is measured by a decrease in signal.
Test compounds were prepared as 10 mM stock solutions in DMSO (Sigma-Aldrich Company Ltd, Gillingham, Dorset SP8 4XT Catalogue No.154938) and serially diluted with 5% DMSO to give a range of test concentrations at 6× the required final concentration. […]
The resulting assay signal was determined on the Perkin Elmer EnVision plate reader. […]

Where [1] appears, read: mean values, Table A, read-out: Mean IC50 (μM) obtained using Assay B.

T1 sequence (P54760 16-987): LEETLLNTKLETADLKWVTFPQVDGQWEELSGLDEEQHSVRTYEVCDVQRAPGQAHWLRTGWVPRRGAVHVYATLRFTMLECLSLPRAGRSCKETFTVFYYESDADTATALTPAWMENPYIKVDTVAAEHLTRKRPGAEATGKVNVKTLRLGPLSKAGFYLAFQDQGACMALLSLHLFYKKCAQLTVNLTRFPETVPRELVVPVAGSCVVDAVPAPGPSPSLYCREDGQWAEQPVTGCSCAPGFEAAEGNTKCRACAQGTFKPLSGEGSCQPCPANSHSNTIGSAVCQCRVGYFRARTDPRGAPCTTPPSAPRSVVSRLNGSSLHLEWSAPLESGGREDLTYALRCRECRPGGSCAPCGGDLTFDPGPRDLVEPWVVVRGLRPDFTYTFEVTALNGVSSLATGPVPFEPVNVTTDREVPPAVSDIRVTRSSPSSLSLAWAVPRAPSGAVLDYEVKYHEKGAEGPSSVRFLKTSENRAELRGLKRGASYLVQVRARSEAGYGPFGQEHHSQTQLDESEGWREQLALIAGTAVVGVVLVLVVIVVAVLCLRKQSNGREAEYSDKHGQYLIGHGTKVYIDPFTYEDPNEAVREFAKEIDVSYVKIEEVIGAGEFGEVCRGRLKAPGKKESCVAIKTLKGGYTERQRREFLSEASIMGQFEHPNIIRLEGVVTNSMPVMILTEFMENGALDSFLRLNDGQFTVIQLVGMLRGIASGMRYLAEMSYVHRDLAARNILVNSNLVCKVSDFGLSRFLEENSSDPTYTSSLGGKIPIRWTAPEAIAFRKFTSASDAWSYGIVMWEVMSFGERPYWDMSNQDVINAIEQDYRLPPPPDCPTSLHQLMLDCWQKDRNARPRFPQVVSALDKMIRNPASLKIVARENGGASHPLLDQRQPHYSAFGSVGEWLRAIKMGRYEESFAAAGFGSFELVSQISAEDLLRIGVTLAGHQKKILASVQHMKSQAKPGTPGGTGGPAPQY
T2 sequence (P12931 whole entry): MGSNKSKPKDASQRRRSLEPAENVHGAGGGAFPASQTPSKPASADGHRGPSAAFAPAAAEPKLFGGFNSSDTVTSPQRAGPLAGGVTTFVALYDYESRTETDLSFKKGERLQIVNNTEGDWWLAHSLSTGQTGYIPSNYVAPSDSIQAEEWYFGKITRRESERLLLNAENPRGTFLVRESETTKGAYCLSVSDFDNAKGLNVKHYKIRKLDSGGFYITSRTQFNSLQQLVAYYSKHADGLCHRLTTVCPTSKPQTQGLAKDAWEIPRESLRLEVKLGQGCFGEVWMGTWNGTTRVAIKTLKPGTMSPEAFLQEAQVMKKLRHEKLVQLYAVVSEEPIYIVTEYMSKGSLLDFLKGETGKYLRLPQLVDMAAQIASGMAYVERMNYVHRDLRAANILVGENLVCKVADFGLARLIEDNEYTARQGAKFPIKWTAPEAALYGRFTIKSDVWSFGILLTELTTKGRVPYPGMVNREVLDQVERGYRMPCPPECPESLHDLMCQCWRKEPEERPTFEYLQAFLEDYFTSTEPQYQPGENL

Regarding `Clc1ccc2c(c1Nc1ccnc(Nc3ccc4ncsc4c3)n1)OCO2` [Compound 59, N~2~-1,3-benzothiazol-6-yl-N~4~-(5-chloro-1,3-benzodioxol-4-yl)pyrimidine-2,4-diamine], the IC50 (commonly the concentration that inhibits the measured activity by half) worked out at 1.25 µM on EphB4 (ephrin-B2 stimulated EphB4 phosphorylation, read-out: IC50 in assay B); 330 nM at c-Src kinase; 460 nM at recombinant EphB4.
As for `CN(c1ccnc(Nc2cccc(NS(C)(=O)=O)c2)n1)c1c(Cl)ccc2c1OCO2` [Compound 219, N-[3-[[4-[(5-chlorobenzo [1,3]dioxol-4-yl)-methyl-amino]pyrimidin-2-yl]amino]phenyl]methane sulfonamide], the IC50 at EphB4 (setting [1]) turned out to be 0.14 µM.
As to `CS(=O)(=O)Nc1cccc(Nc2nccc(N(CC#N)c3c(Cl)ccc4c3OCO4)n2)c1` [Compound 227], the IC50 at EphB4 (setting [1]) is 0.19 µM.
On to `N#Cc1cccc(Nc2nccc(N(CCO)c3c(Cl)ccc4c3OCO4)n2)c1` [Compound 241, 3-[[4-[(5-chlorobenzo [1,3]dioxol-4-yl)-(2-hydroxyethyl)amino]pyrimidin-2-yl]amino] benzonitrile], for which, on EphB4 (setting [1]), the IC50 was found to be 0.13 µM.
Consider `COc1cc(Nc2nccc(Nc3cccc4c3OCO4)n2)cc(OC)c1` [Compound 258, N′-benzo[1,3]dioxol-4-yl-N-(3,5-dimethoxyphenyl) pyrimidine-2,4-diamine], for which, on EphB4 (setting [1]), the half-maximal inhibitory concentration (IC50) was determined as 1.08 µM.
On to `CC(=O)Nc1cc(Nc2nccc(Nc3cccc4[nH]ncc34)n2)ccc1C` [Compound 293, N-[5-[[4-(1H-indazol-4-ylamino)pyrimidin-2-yl]amino]-2-methyl-phcnyl] acetamide], for which the IC50 at EphB4 (setting [1]) amounted to 0.23 µM.
